Measured values as given in ChEMBL document CHEMBL3044552, “Synthesis and biological evaluation of 1-(3-chloro-2-oxo-4-phenylazetidin-1-yl)-3-(2-oxo-2-(10H-phenothiazin-10-yl)ethyl)urea derivatives” (Med Chem Res, 2013).
≈ marks a conversion by molar mass, not a printed value. Calls of active or inactive are those of the source. No cut-off for these calls is given here.

Columns and labels:
[1] = test system: Mycobacterium tuberculosis; assay: Growth inhibition of Mycobacterium tuberculosis H37Rv at 1 ug/ml after 7 days by resazurin microplate assay; assay type: functional, organism-based
[2] = test system: Trichophyton rubrum; assay: Antifungal activity against Trichophyton rubrum after 18 hr by serial dilution method; assay type: functional
[3] = test system: Aspergillus niger; assay: Antifungal activity against Aspergillus niger after 18 hr by serial dilution method; assay type: functional
[4] = test system: Monascus purpureus; assay: Antifungal activity against Monascus purpureus after 18 hr by serial dilution method; assay type: functional
[5] = test system: Candida albicans; assay: Antifungal activity against Candida albicans after 18 hr by serial dilution method; assay type: functional
[6] = test system: Staphylococcus epidermidis; assay: Antibacterial activity against Staphylococcus albus after 18 hr by serial dilution method; assay type: functional
[7] = test system: Bacillus subtilis; assay: Antibacterial activity against Bacillus subtilis after 18 hr by serial dilution method; assay type: functional
[8] = test system: Staphylococcus aureus; assay: Antibacterial activity against Staphylococcus aureus after 18 hr by serial dilution method; assay type: functional
[9] = test system: Micrococcus luteus; assay: Antibacterial activity against Micrococcus luteus after 18 hr by serial dilution method; assay type: functional
[10] = test system: Vibrio cholerae; assay: Antibacterial activity against Vibrio cholerae after 18 hr by serial dilution method; assay type: functional
[11] = test system: Salmonella paratyphi; assay: Antibacterial activity against Salmonella enterica subsp. enterica serovar Paratyphi A after 18 hr by serial dilution method; assay type: functional
[12] = test system: Escherichia coli; assay: Antibacterial activity against Escherichia coli after 18 hr by serial dilution method; assay type: functional
[13] = test system: Pseudomonas aeruginosa; assay: Antibacterial activity against Pseudomonas aeruginosa after 18 hr by serial dilution method; assay type: functional
[14] = test system: Trichophyton rubrum; assay: Antifungal activity against Trichophyton rubrum after 24 hr by disk diffusion method; assay type: functional
[15] = test system: Aspergillus niger; assay: Antifungal activity against Aspergillus niger after 24 hr by disc diffusion method; assay type: functional
[16] = test system: Monascus purpureus; assay: Antifungal activity against Monascus purpureus after 24 hr by disk diffusion method; assay type: functional
[17] = test system: Candida albicans; assay: Antifungal activity against Candida albicans after 24 hr by disk diffusion method; assay type: functional
[18] = test system: Staphylococcus epidermidis; assay: Antibacterial activity against Staphylococcus albus after 24 hr by disk diffusion method; assay type: functional
[19] = test system: Bacillus subtilis; assay: Antibacterial activity against Bacillus subtilis after 24 hr by disk diffusion method; assay type: functional
[20] = test system: Staphylococcus aureus; assay: Antibacterial activity against Staphylococcus aureus after 24 hr by disk diffusion method; assay type: functional
[21] = test system: Micrococcus luteus; assay: Antibacterial activity against Micrococcus luteus after 24 hr by disk diffusion method; assay type: functional
[22] = Antioxidant activity assessed as reduction of ferric ion after 30 min by spectrophotometric analysis; assay type: functional
[23] = test system: Radical scavenging activity; assay: Antioxidant activity assessed as DPPH radical scavenging activity after 30 min by spectrophotometric analysis; assay type: functional
[24] = test system: Mycobacterium tuberculosis; assay: Growth inhibition of Mycobacterium tuberculosis H37Rv at 100 ug/ml after 7 days by resazurin microplate assay; assay type: functional, organism-based
[25] = test system: Mycobacterium tuberculosis; assay: Growth inhibition of Mycobacterium tuberculosis H37Rv at 10 ug/ml after 7 days by resazurin microplate assay; assay type: functional, organism-based
[26] = test system: Pseudomonas aeruginosa; assay: Antibacterial activity against Pseudomonas aeruginosa after 24 hr by disc diffusion method; assay type: functional
[27] = test system: Escherichia coli; assay: Antibacterial activity against Escherichia coli after 24 hr by disc diffusion method; assay type: functional
[28] = test system: Salmonella paratyphi; assay: Antibacterial activity against Salmonella enterica subsp. enterica serovar Paratyphi A after 24 hr by disk diffusion method; assay type: functional
[29] = test system: Vibrio cholerae; assay: Antibacterial activity against Vibrio cholerae after 24 hr by disk diffusion method; assay type: functional

Compound	MIC [2] [µg/mL]	MIC [3] [µg/mL]	MIC [4] [µg/mL]	MIC [5] [µg/mL]	MIC [6] [µg/mL]	MIC [7] [µg/mL]	MIC [8] [µg/mL]	MIC [9] [µg/mL]	MIC [10] [µg/mL]	MIC [11] [µg/mL]	MIC [12] [µg/mL]	MIC [13] [µg/mL]	diameter of the inhibition zone (DIZ) [14] [mm]	diameter of the inhibition zone (DIZ) [15] [mm]	diameter of the inhibition zone (DIZ) [16] [mm]	diameter of the inhibition zone (DIZ) [18] [mm]	diameter of the inhibition zone (DIZ) [19] [mm]	diameter of the inhibition zone (DIZ) [20] [mm]	diameter of the inhibition zone (DIZ) [21] [mm]	EC50 [23] [µg/mL]	other results
CN(C)c1ccc(C2C(Cl)C(=O)N2NC(=O)NCC(=O)N2c3ccccc3Sc3ccccc32)cc1 (stereo not given)	250 (≈ 479 µM)	125 (≈ 239 µM)	250 (≈ 479 µM)	250 (≈ 479 µM)	125 (≈ 239 µM)	125 (≈ 239 µM)	125 (≈ 239 µM)	250 (≈ 479 µM)	125 (≈ 239 µM)	250 (≈ 479 µM)	250 (≈ 479 µM)	62.5 (≈ 120 µM)	7	8	7	8	8	8	5	55 (≈ 105 µM)	growth inhibition (GI) [1]: inactive; diameter of the inhibition zone (DIZ) [17]: 7 mm; Activity [22]: Active; growth inhibition (GI) [24]: Active; growth inhibition (GI) [25]: inactive; diameter of the inhibition zone (DIZ) [26]: 12 mm; diameter of the inhibition zone (DIZ) [27]: 7 mm; diameter of the inhibition zone (DIZ) [28]: 6 mm; diameter of the inhibition zone (DIZ) [29]: 8 mm
CO[C@H]1/C=C/O[C@@]2(C)Oc3c(C)c(O)c4c(O)c(c(/C=N/N5CCN(C)CC5)c(O)c4c3C2=O)NC(=O)/C(C)=C\C=C\[C@H](C)[C@H](O)[C@@H](C)[C@@H](O)[C@@H](C)[C@H](OC(C)=O)[C@@H]1C	–	–	–	–	–	–	–	–	–	–	–	–	–	–	–	–	–	–	–	–	growth inhibition (GI) [1]: Active; growth inhibition (GI) [25]: Active
O=C(NCC(=O)N1c2ccccc2Sc2ccccc21)NN1C(=O)C(Cl)C1c1ccccc1Cl (stereo not given)	125 (≈ 243 µM)	125 (≈ 243 µM)	125 (≈ 243 µM)	62.5 (≈ 122 µM)	250 (≈ 487 µM)	250 (≈ 487 µM)	500 (≈ 974 µM)	250 (≈ 487 µM)	250 (≈ 487 µM)	125 (≈ 243 µM)	250 (≈ 487 µM)	250 (≈ 487 µM)	10	8	10	5	7	4	7	57 (≈ 111 µM)	diameter of the inhibition zone (DIZ) [17]: 12 mm; Activity [22]: Active; diameter of the inhibition zone (DIZ) [26]: 7 mm; diameter of the inhibition zone (DIZ) [27]: 8 mm; diameter of the inhibition zone (DIZ) [28]: 12 mm; diameter of the inhibition zone (DIZ) [29]: 6 mm
O=C1O[C@H]([C@@H](O)CO)C(O)=C1O [ASCORBIC ACID]	–	–	–	–	–	–	–	–	–	–	–	–	–	–	–	–	–	–	–	40 (≈ 227 µM)	–
Clc1ccccc1C(c1ccccc1)(c1ccccc1)n1ccnc1 [CLOTRIMAZOLE]	62.5 (≈ 181 µM)	125 (≈ 362 µM)	62.5 (≈ 181 µM)	62.5 (≈ 181 µM)	–	–	–	–	–	–	–	–	22	4	20	–	–	–	–	–	–
O=C(O)c1cn(C2CC2)c2cc(N3CCNCC3)c(F)cc2c1=O [CIPROFLOXACIN]	–	–	–	–	62.5 (≈ 189 µM)	62.5 (≈ 189 µM)	62.5 (≈ 189 µM)	125 (≈ 377 µM)	125 (≈ 377 µM)	125 (≈ 377 µM)	62.5 (≈ 189 µM)	62.5 (≈ 189 µM)	–	–	–	23	25	20	16	–	diameter of the inhibition zone (DIZ) [26]: 22 mm; diameter of the inhibition zone (DIZ) [28]: 18 mm; diameter of the inhibition zone (DIZ) [29]: 15 mm
